Measured values: patent US5521293A (Lever Brothers Company, Division of Conopco, Inc., priority 1995, dated 1996)

Tests used:
Format in all cases: physicochemical
[1] = Krafft point of aqueous dispersion of aldonamide; conditions: for Krafft Point (0.1%): 0.1% in water by weight; for Krafft Point (1.0%): 1.0% in water by weight
Procedure: The temperature at and above which surfactants begin to form micelles instead of precipitates is referred to as the Krafft point (Tk) and at this temperature the solubility of a surfactant becomes equal to its CMC (numerical value at which micelles are formed).
The Krafft point was measured by preparing 650 ml of a 0.1% or 1.0% dispersion of aldonamide in water by weight. If the surfactant was soluble at room temperature, the solution was slowly cooled to 0° C. […] (less than zero). If it precipitated out of solution, the temperature at which precipitation occurs was taken as the Krafft point.
If the surfactant was insoluble at :room temperature, the dispersion was slowly heated until the solution became homogeneous. It was then slowly cooled until precipitation occurred. The temperature at which the surfactant precipitates out of solution upon cooling was taken as the Krafft point.

[2] = Ross-Miles foam height; design: key: X: low water solubility. foam height cannot be measured; conditions: Examples 82-83; for Foam Height Final (symbol): after 10 minutes
Procedure: (§1) Since most of the foaming data on surfactants is typically obtained by the Ross-Miles Foam Height Assay (Ross, J. and Miles, G. D. Am Soc. for Testing Material Method D1173-63 Philadelphia, Pa. (1953); Oil & Soap (1958) 62:1260) the foaming ability of these surfactants were acquired using this method.
(§2) In the Ross-Miles method, 200 mL of a surfactant solution contained in a pipette of specified dimensions with a 2.9-mm-i.d. orifice is allowed to fall 90 cm onto 50 mL of the same solution contained in a cylindrical vessel maintained at a given temperature by means of a water jacket. The height of the foam produced in the cylindrical vessel is read immediately after all the solution has run out of the pipette and then again after a given amount of time.
(§3) Using this method, the foam production (initial foam height in mm) and foam stability (final foam height after 10 minutes in mm) were measured at 0.1% aldonamide concentration, 40° C. and 0 ppm (parts per million) hardness. Aldonamides that were not soluble at 40° C. were measured at about 5°-10° C. above their Krafft points.

[3] = Water solubility; conditions: in words
[4] = Ross-Miles foam height; conditions: 0.1% aldonamide, 40° C. (or about 5°-10° C. above Krafft point if not soluble), 0 ppm hardness; for Foam Height Final: after 10 minutes
Procedure: as §1, §2, §3

Row | Compound | Krafft Point (0.1%) [1] | Krafft Point (1.0%) [1] | also measured
1 | CCCCCCCCCCCCNC(=O)[C@H](O)[C@H](O)[C@H](O)CO [A, dodecyl D-ribonamide] | 54 °C |  | 
2 | CCCCCCCCCCCCOC(=O)CNC(=O)[C@H](O)[C@@H](O)[C@H](O[C@@H]1O[C@H](CO)[C@H](O)[C@H](O)[C@H]1O)[C@H](O)CO [AAA, N-D-lactobionyl dodecyl glycinate] |  | < 0 °C | 
3 | CCCCCCCCCCCCOC(=O)CCNC(=O)[C@H](O)[C@@H](O)[C@H](O[C@@H]1O[C@H](CO)[C@H](O)[C@H](O)[C@H]1O)[C@H](O)CO [BBB, N-D-lactobionyl dodecyl β-alaninate] |  | < 0 °C | 
4 | CCCCCCCCCCCCOCCCNC(=O)[C@H](O)[C@@H](O)[C@H](O)[C@H](O)CO [Entry S, C12 Oxypropyl D-Gluconamide] | 61 °C |  | 
5 | CCCCCCCCCCNC(=O)[C@H](O)[C@@H](O)[C@H](O)[C@H](O)CO [F, C10 D-Gluconamide] | 75 °C |  | 
6 | CCCCCCCCCCCCNC(=O)C(O)C(O)C(O)C(O)C(O)C(O)CO [FF, C12 D-Glucooctonamide] | 86 °C |  | Foam Height Final (symbol) [2]: X; Foam Height Initial (symbol) [2]: X
7 | CCCCCCCCCCCCNC(=O)[C@@H](O)[C@H](O)[C@@H](O)[C@@H](O)CO [I, C12 L-Gluconamide] | 91 °C |  | Foam Height Final (symbol) [2]: X; Foam Height Initial (symbol) [2]: X
8 | CCCCCCCCCCCNC(=O)[C@H](O)[C@@H](O)[C@H](O[C@@H]1O[C@H](CO)[C@H](O)[C@H](O)[C@H]1O)[C@H](O)CO [NN, C11 D-Lactobionamide] |  | 61 °C | 
9 | CCCCCCCCCCCCCNC(=O)[C@H](O)[C@@H](O)[C@H](O[C@@H]1O[C@H](CO)[C@H](O)[C@H](O)[C@H]1O)[C@H](O)CO [PP, C13 D-Lactobionamide] |  | 70 °C | 
10 | CCCCCCCCCCCCCCOCCCNC(=O)[C@H](O)[C@@H](O)[C@H](O)[C@H](O)CO [V, C14 Oxypropyl D-Gluconamide] | 53 °C |  | 
11 | CCCCCCCCCCCCOC(=O)CNC(=O)[C@H](O)[C@@H](O)[C@H](O)[C@H](O)CO [W, N-D-gluconyl dodecyl glycinate] | 63 °C |  | 
12 | CCCCCCCCCCCCOCCCNC(=O)[C@H](O)[C@@H](O)[C@H](O[C@@H]1O[C@H](CO)[C@H](O)[C@H](O)[C@H]1O)[C@H](O)CO [WW, dodecyloxypropyl D-lactobionamide] |  | < 0 °C | 
13 | CCCCCCCCCCCCOCCOCCOC(=O)CNC(=O)[C@H](O)[C@@H](O)[C@H](O)[C@H](O)CO [Z, N-D-Gluconyl Dodecyldi(oxyethyl) Glycinate] | < 0 °C |  | 
14 | Iso C10 Oxypropyl D-Gluconamide | < 0 °C |  | Foam Height Final [4]: 206 mm; Foam Height Initial [4]: 213 mm
15 | Iso C13 Oxypropyl D-Gluconamide [T] | < 15 °C |  | 
16 | Iso C13 Oxypropylaminopropyl D-Gluconamide [DD] | < 0 °C |  | Foam Height Final [4]: 178 mm
17 | cocoaminopropyl D-lactobionamide [CCC] |  | < 0 °C | 
18 | dodecyl to pentadecyloxypropyl D-lactobionamide [YY] |  | < 0 °C | 
19 | dodecyl to pentadecyloxypropylaminopropyl D-lactobionamide [EEE] |  | < 0 °C | 
20 | octyl/decyloxypropyl D-lactobionamide [VV] |  | < 0 °C | 
21 | oleylaminopropyl D-lactobionamide [DDD] |  | < 0 °C | Foam Height Initial [4]: 169 mm

Second part, led by results:

Row | Krafft Point (0.1%) [1] | Krafft Point (1.0%) [1] | Compound | also measured
22 | 53 °C |  | CCCCCCCCCCCCOC(=O)C(C)NC(=O)[C@H](O)[C@@H](O)[C@H](O)[C@H](O)CO (mixture of isomers) [Y, N-D-Gluconyl Dodecyl DL-Alaninate] | 
23 | < 0 °C |  | CCCCCCCNC(=O)[C@H](O)[C@@H](O)[C@H](O)[C@H](O)CO [C, C7 D-Gluconamide] | 
24 | < 0 °C |  | CCCCCCCC/C=C\CCCCCCCCNCCCNC(=O)[C@H](O)[C@@H](O)[C@H](O)[C@H](O)CO [CC, oleylaminopropyl D-gluconamide] | 
25 | 12 °C |  | CCCCCCCCNC(=O)[C@H](O)[C@@H](O)[C@H](O)[C@H](O)CO [D, C8 D-Gluconamide] | 
26 | 53 °C |  | CCCCCCCCCNC(=O)[C@H](O)[C@@H](O)[C@H](O)[C@H](O)CO [E, C9 D-Gluconamide] | 
27 | 87 °C |  | CCCCCCCCCCCNC(=O)[C@H](O)[C@@H](O)[C@H](O)[C@H](O)CO [G, C11 D-Gluconamide] | Foam Height Final (symbol) [2]: X; Foam Height Initial (symbol) [2]: X
28 | > 100 °C |  | CCCCCCCCCCCCNC(=O)[C@H](O)[C@H](O)[C@@H](O)[C@@H](O)[C@H](O)CO [GG, C12 D-Glycero-L-Mannoheptonamide] | water solubility [3]: Insoluble
29 | 91 °C |  | CCCCCCCCCCCCNC(=O)[C@H](O)[C@H](O)[C@@H](O)[C@H](O)[C@H](O)CO [HH, C12 D-Glucoheptonamide] | Foam Height Final (symbol) [2]: X; Foam Height Initial (symbol) [2]: X
30 | > 100 °C |  | CCCCCCCCCCCCNC(=O)[C@H](O)[C@@H](O)[C@@H](O)[C@H](O)CO [J, C12 D-Galactonamide] | water solubility [3]: Insoluble
31 | > 100 °C |  | CCCCCCCCCCCCNC(=O)[C@@H](O)[C@H](O)[C@H](O)[C@@H](O)CO [K, C12 L-Galactonamide] | water solubility [3]: Insoluble
32 | 73 °C |  | CCCCCCCCCCCCOCCCNC(=O)[C@H](O)[C@H](O)[C@@H](O)[C@H](O)[C@H](O)CO [KK, C12 Oxypropyl D-Glucoheptonamide] | 
33 |  | 42 °C | CCCCCCCCCNC(=O)[C@H](O)[C@@H](O)[C@H](O[C@@H]1O[C@H](CO)[C@H](O)[C@H](O)[C@H]1O)[C@H](O)CO [MM, nonyl D-lactobionamide] | 
34 |  | 38 °C | CCCCCCCCCCCCNC(=O)[C@H](O)[C@@H](O)[C@H](O[C@@H]1O[C@H](CO)[C@H](O)[C@H](O)[C@H]1O)[C@H](O)CO [OO, C12 D-Lactobionamide] | 
35 | < 0 °C |  | CCCCC(CC)COCCCNC(=O)[C@H](O)[C@@H](O)[C@H](O)[C@H](O)CO (stereo partly drawn) [P, Ethylhexyloxypropyl D-Gluconamide] | 
36 |  | 18 °C | CCCCCCCCCCCCCCNC(=O)[C@H](O)[C@@H](O)[C@H](O[C@@H]1O[C@H](CO)[C@H](O)[C@H](O)[C@H]1O)[C@H](O)CO [QQ, C14 D-Lactobionamide] | 
37 |  | 46 °C | CCCCCCCCCCCCCCNC(=O)[C@H](O)[C@@H](O)[C@H](O[C@H]1O[C@H](CO)[C@@H](O)[C@H](O)[C@H]1O)[C@H](O)CO [RR, C14 D-Maltobionamide] | 
38 |  | 64 °C | CCCCCCCCCCCCCCCCNC(=O)[C@H](O)[C@@H](O)[C@H](O[C@@H]1O[C@H](CO)[C@H](O)[C@H](O)[C@H]1O)[C@H](O)CO [TT, C16 D-Lactobionamide] | 
39 | 63 °C |  | CCCCCCCCCCCC(=O)OCCNC(=O)[C@H](O)[C@@H](O)[C@H](O)[C@H](O)CO [X, N-D-gluconyl dodecyl ester of ethanolamine] | 
40 |  | < 0 °C | CCCCCCCCCCCCOCCCNC(=O)[C@H](O)[C@@H](O)[C@H](O[C@H]1O[C@H](CO)[C@@H](O)[C@H](O)[C@H]1O)[C@H](O)CO [XX, dodecyloxypropyl D-maltobionamide] | 
41 |  | < 0 °C | CCCCCCCCCCCCCCOCCCNC(=O)[C@H](O)[C@@H](O)[C@H](O[C@@H]1O[C@H](CO)[C@H](O)[C@H](O)[C@H]1O)[C@H](O)CO [ZZ, tetradecyloxypropyl D-lactobionamide] | 
42 | 60 °C |  | C8 /C10 Oxypropyl D-Glucoheptonamide [II] | Foam Height Final [4]: 90 mm; Foam Height Initial [4]: 221 mm
43 | 68 °C |  | C12 -C15 Oxypropyl D-Glucoheptonamide [LL] | Foam Height Final [4]: 97 mm; Foam Height Initial [4]: 239 mm
44 | 18 °C |  | Iso C10 Oxypropyl D-Glucoheptonamide [JJ] | Foam Height Final [4]: 204 mm; Foam Height Initial [4]: 215 mm
45 | 18 °C |  | cocoaminopropyl D-gluconamide [AA] | 
46 | 58 °C |  | dodecyl to pentadecyloxypropyl D-gluconamide | 
47 | < 0 °C |  | dodecyl to pentadecyloxypropylaminopropyl D-gluconamide [EE] | 
48 | 10 °C |  | octyl/decyloxypropyl D-ribonamide | 
49 | < 18 °C |  | soyaaminopropyl D-gluconamide [BB] | 
